Patent US20100074920A1 (priority 2006, published 2010)
Where two headings read alike, the source gives them in different places.

Assays:
[1] = system: serum antibodies of test subjects 1-6; experiment: ELISA on maleimide-activated plates (Cys-immobilized peptides); format: binding, human; conditions: Cys-conjugate on maleimide plate; sera 1-6
Description: Peptides containing cysteine were bound through the cysteine sulfhydryl group to maleimide activated plates (Reacti-Bind™ Maleimide activated plates, Pierce). The peptides sequences were as follows:
One hundred microliters of the peptide solution (0.5 nmol of peptide) was added to each well and allowed to react overnight at +4° C.
The unreacted maleimide groups were blocked with 2-mercaptoethanol: 150 μl of 1 mM 2-mercaptoethanol in 10 mM sodium phosphate/0.15 M NaCl/2 mM EDTA, pH 7.2 was added to each well and allowed to react for 1 hour at RT.
The serum obtained from person nr. […] Control wells contained no peptide but both 2-mercaptoethanol and BSA blockings were employed. All incubations were performed in duplicates.

[2] = system: serum antibodies of test subjects 1-6; conditions: N-terminal conjugate on a streptavidin plate; sera 1-6
[3] = system: serum antibodies of test subjects Serum 1B-8B; conditions: sera S1B-S8B; streptavidin immobilized peptide
[4] = system: commercial polyclonal antibody from rabbit; experiment: ELISA control, peptide coated on maleimide plate; conditions: peptide coated on a maleimide plate; negligible binding without the peptide
Excerpt: A commercial peptide […] (HM11-peptide), which has been used as a recognition tag on recombinant proteins was used as a control and for testing of analysis of binding between a free core peptide and human antibodies. Due to restricted availability of at least N-terminal sequence the peptide would not be very effective in immunization against the viral as therapy. This peptide is known to be antigenic in animals under immunization conditions and antibodies including polyclonals from rabbit, mice etc.

| Substance | immune response of the 6 sera, order of reactivity [2] | binding of serum antibodies (immune response), absorbance at 450 nm [3] | further results |
| --- | --- | --- | --- |
| Biotin-aminohexanoyl-SYACKR [Peptide 2] | sera 2 and 5 showed strongest immune response before sera 3,4 and 6, while serum 1 showed weakest reaction |  | immune response of the 6 sera, order of reactivity [1]: reacted with sera similarly but reactions with serum 5 was weaker and the serum 6 showed the strongest response |
| Biotin-aminocaproyl-CRPKVRDQC [Peptide 3B] |  | unusually high response, especially with a person S5B |  |
| CYPYDVPDYA [HA11, commercial peptide used as a recognition tag on recombinant proteins; control and core peptide] |  |  | binding of commercial polyclonal antibody from rabbit to the peptide [4]: effective binding |
| Biotin-aminohexanoyl-PWVRGV [Peptide 3] | distinct pattern of immune recognition |  |  |
| Biotin-aminocaproyl-CRPWVRGVC [Peptide 4B] |  | bind generally more strongly antibodies than the corresponding linear peptide 3 |  |
